Data reported in PubChem BioAssay (NCI).
Several values for one entry are separate records, joined by “and”; a condition that tells them apart may be missing. Equal entries are not always repeated.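 Results reflect a 48-hour exposure of cells in 96-well plates to compound at five concentrations. The concentration for 50% growth inhibition is given as GI50. TGI: total growth inhibition.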

How the values were obtained:
Experiment in all cases: NCI-60 cell line screen, 48 h
MCF7 breast = tested on: MCF7 breast
TK-10 renal = tested on: TK-10 renal
CAKI-1 renal = tested on: CAKI-1 renal
HCT-116 colon = tested on: HCT-116 colon
EKVX NSCLC = tested on: EKVX NSCLC
KM12 colon = tested on: KM12 colon
ACHN renal = tested on: ACHN renal
SF-268 CNS = tested on: SF-268 CNS
A549 NSCLC = tested on: A549 NSCLC
MDA-MB-435 = tested on: MDA-MB-435

| SMILES | GI50 (MCF7 breast) | TGI (MCF7 breast) | GI50 (TK-10 renal) | TGI (TK-10 renal) | GI50 (CAKI-1 renal) | TGI (CAKI-1 renal) | GI50 (HCT-116 colon) | TGI (HCT-116 colon) | GI50 (EKVX NSCLC) | TGI (EKVX NSCLC) | GI50 (KM12 colon) | TGI (KM12 colon) | GI50 (ACHN renal) | TGI (ACHN renal) | GI50 (SF-268 CNS) | TGI (SF-268 CNS) | GI50 (A549 NSCLC) | TGI (A549 NSCLC) | GI50 (MDA-MB-435) | TGI (MDA-MB-435) |
| --- | --- | --- | --- | --- | --- | --- | --- | --- | --- | --- | --- | --- | --- | --- | --- | --- | --- | --- | --- | --- |
| CCCN(CCC)C(=O)[C@H](CC)[C@@H]1CC[C@@H](C)[C@@H]([C@H](C)[C@@H](O)[C@@H](C)C(=O)[C@H](CC)C2O[C@]3(C=C[C@@H](O)[C@]4(CC[C@@](C)([C@H]5CC[C@](O)(CC)[C@H](C)O5)O4)O3)[C@H](C)C[C@@H]2C)O1 (some centres not stated) | 2460 nM | 7.76 µM | 3.3 µM | 68.3 µM | 1950 nM | 8.7 µM | 2160 nM | 5.98 µM | 2.59 µM | 11.7 µM | 1.86 µM | 4.02 µM | 3.18 µM | 10.3 µM | 3.43 µM | 22.7 µM | 3.18 µM | 26.9 µM | 2960 nM | 9.71 µM |
| COc1cccc2c(=O)c3c(sc12)c(NCCN(C)C)nc1ccccc13 | 1250 nM | 2.7 µM | – | – | 1360 nM | 3.12 µM | 538 nM | 1.85 µM | 1.51 µM | 2.99 µM | 1.59 µM | 3.1 µM | 1 µM | 2.22 µM | 1.6 µM | 3.57 µM | 1.22 µM | 2.8 µM | 1710 nM | 3.2 µM |
| CC1=C(C(=O)Nc2ccc(F)c(Cl)c2)C(c2cccc(Oc3ccccc3)c2)NC(=O)N1 (configuration not stated) | 17600 nM | 43.7 µM | 8.67 µM | 21.7 µM | 18600 nM | 38.8 µM | 12200 nM | 24.6 µM | 14.8 µM | 31.8 µM | 14.9 µM | 34.3 µM | 15.1 µM | 28.4 µM | 15.6 µM | 40.3 µM | 14.1 µM | 30.2 µM | 18800 nM | 39.8 µM |
| Cc1nn(-c2nc3ccccc3[nH]2)c2c1C(c1ccc3c(c1)OCO3)CC(=O)N2 (configuration not stated) | 2980 nM | > 30.1 µM | 3.14 µM | > 25.8 µM | 2550 nM | 7.04 µM | 2240 nM | 4.73 µM | – | – | 2.33 µM | 5.45 µM | 4.07 µM | > 100 µM | 3.38 µM | 11.7 µM | 2.56 µM | 7.73 µM | 2460 nM | 6.3 µM |
| Clc1ccc2c(c1)-c1ccccc1C1=NCCN12 | 2180 nM | 8.58 µM | 1.87 µM | 5.51 µM | 1830 nM | 5.8 µM | 719 nM | 6.86 µM | 2.25 µM | 9.09 µM | 2.56 µM | 7.79 µM | 1.12 µM | 9.3 µM | 1.91 µM | 5.42 µM | 1.53 µM | 3.77 µM | 2040 nM | 5.76 µM |
| COc1ccc(/C=C/C(=O)c2cc3c(N)c(C(=O)Nc4ccccc4)sc3nc2C)cc1 | 128 nM | > 50 µM | 1.27 µM | > 50 µM | 258 nM | > 50 µM | 189 nM | 5.1 µM | 0.752 µM | > 50 µM | 0.204 µM | 7.18 µM | 0.344 µM | > 23 µM | 0.517 µM | > 50 µM | 0.273 µM | > 50 µM | – | – |
| N#C[S-].[Au+].c1ccc(CN2[CH-]N(Cc3ccccc3)C(c3ccccc3)=C2c2ccccc2)cc1 | – | – | 0.583 µM | 1.98 µM | – | – | – | – | – | – | 0.527 µM | 2.79 µM | – | – | 0.431 µM | 2.49 µM | 0.593 µM | 3.24 µM | 492 nM | 1.74 µM |
| CS(=O)(=O)Nc1cc(-c2ccc3ncnc(Nc4ccc5c(cnn5Cc5ccccc5F)c4)c3c2)cnc1Cl | 1480 nM | 30.3 µM | 1.28 µM | 5.44 µM | 1710 nM | 5.62 µM | 2080 nM | > 33.7 µM | 1.69 µM | 9.53 µM | 2.48 µM | 8.1 µM | 3.24 µM | > 52.9 µM | 1.31 µM | 9.18 µM | 2.87 µM | > 53.7 µM | 2350 nM | 8.32 µM |
| Clc1nc(Cl)c(Cc2ccccc2)c(Cl)n1 | – | 21.4 µM | – | 32.2 µM | – | – | – | 4.73 µM | – | 33.2 µM | – | 66.3 µM | – | 32 µM | – | 57.7 µM | – | 27.5 µM | – | 19 µM |
| CNc1nc(N(C)C)nc(N(C)C)n1 | – | 1790 µM | > 100 µM and 2270 µM | > 100 µM and 4960 µM | > 100000 nM and 926000 nM | > 100 µM and 2620 µM | > 100000 nM and 809000 nM | > 100 µM and 1930 µM | > 100 µM and 2180 µM | > 100 µM and 4800 µM | > 100 µM and 1450 µM | > 100 µM and 3420 µM | > 100 µM and 1900 µM | > 100 µM and 3610 µM | > 100 µM and 2680 µM | > 100 µM and 6220 µM | > 100 µM and 2150 µM | > 100 µM and 3500 µM | – | 4420 µM |
| O=C(/C=C/c1ccc(C(F)(F)F)cc1)c1ccc(Nc2nc(NCCO)nc(N3CCOCC3)n2)cc1 | 1250 nM | 3.95 µM | – | – | 2540 nM | 15.6 µM | 1430 nM | 2.74 µM | 2.44 µM | 8.01 µM | 1.8 µM | 3.3 µM | 1.86 µM | 3.86 µM | 2.68 µM | 11.1 µM | 2.74 µM | > 100 µM | 2230 nM | 5.35 µM |
| CN1CCn2c(c(Sc3ccc(C(=O)NO)cc3)c3ccccc32)C1=O | 2800 nM | > 77.1 µM | 2.09 µM | 5.29 µM | 3860 nM | 11 µM | 1590 nM | 3.55 µM | – | – | 1.85 µM | 3.92 µM | 2.63 µM | 8.72 µM | 1.92 µM | 3.85 µM | 3.45 µM | 13 µM | – | – |
| c1ccc(SC(CCCCOC2CCCCO2)Sc2ccccc2)cc1 (configuration not stated) | – | – | – | > 100 µM | – | > 100 µM | – | > 100 µM | – | > 100 µM | – | > 100 µM | – | > 100 µM | – | > 100 µM | – | > 100 µM | – | – |
| COc1cc(-c2oc3c(OC)c(O)c(OC)c(O)c3c(=O)c2OC)ccc1O | – | > 100 µM | – | 98.9 µM | – | 90.1 µM | – | > 100 µM | – | > 100 µM | – | > 100 µM | – | > 100 µM | – | – | – | > 100 µM | – | 49.1 µM |
